Data taken from US6110962A, “11-aryl-benzo[B]naphtho[2,3-D]furans and 11-aryl-benzo[B]naphtho[2,3-D]thiophenes useful in the treatment of insulin resistance and hyperglycemia” (American Home Products Corporation, priority 1999, dated 2000).
Where a name gives a salt, the structure may show the parent alone. Read-outs that look alike come from different tables or passages of the source.

Assays:
[1] = system: rat hepatic microsomal PTPases; details: PTPase activity, compound at 50 μM
diabetic (ob/ob) mice = assay: Blood glucose lowering activity in diabetic (ob/ob) mice; type: in vivo, mouse; details: for change in vivo at 100 mg/kg / change in vivo at 25 mg/kg / change in vivo at 10 mg/kg / change in vivo at 50 mg/kg / change in vivo at 75 mg/kg / change in vivo at 95 mg/kg: Mus musculus, po; for change in vivo at 100 mg/kg / change in vivo at 25 mg/kg / % Change Glucose from Vehicle / change in vivo at 10 mg/kg / change in vivo at 50 mg/kg / change in vivo at 75 mg/kg / % Change Insulin from Vehicle / change in vivo at 95 mg/kg: ob/ob mice
Method: The blood glucose lowering activity of representative compounds of this invention were determined in an in vivo standard procedure using diabetic (ob/ob) mice. The procedures used and results obtained are briefly described below. The non-insulin dependent diabetic (NIDDM) syndrome can be typically characterizes by obesity, hyperglycemia, abnormal insulin secretion, hyperinsulinemia and insulin resistance. […] In each test procedure, mice [Male or female ob/ob (C57 B1/6J) and their lean litermates (ob+ or +/+, Jackson Laboratories) ages 2 to 5 months (10 to 65 g)] of a similar age were randomized according to body weight into 4 groups of 10 mice. The mice were housed 5 per cage and are maintained on normal rodent chow with water ad libitum. Mice received test compound daily by gavage (suspended in 0.5 ml of 0.5% methyl cellulose); dissolved in the drinking water; or admixed in the diet. […] The dose is calculated based on the fed weekly body weight and is expressed as active moiety. […] Control mice received vehicle only. On the morning of Day 4, 7 or 14 two drops of blood (approximetly 50 ul) were collected into sodium fluoride containing tubes either from the tail vein or after decapitation. For those studies in which the compound was administered daily by gavage the blood samples were collected two hours after compound administration. The plasma was isolated by centrifugation and the concentration of glucose is measured enzymatically on an Abbott V. P. Analyzer. […] Analysis of variance followed by Dunett's Comparison Test (one-tailed) are used to estimate the significant difference between the plasma glucose values from the control group and the individual compound treated groups (CMS SAS Release 5.18).

Human recombinant PTP1B = target: T1, Human recombinant PTP1B (Homo sapiens, UniProt P18031); type: biochemical; details: read-out: IC50
T1 construct: made in house
T1 sequence (P18031 1-435): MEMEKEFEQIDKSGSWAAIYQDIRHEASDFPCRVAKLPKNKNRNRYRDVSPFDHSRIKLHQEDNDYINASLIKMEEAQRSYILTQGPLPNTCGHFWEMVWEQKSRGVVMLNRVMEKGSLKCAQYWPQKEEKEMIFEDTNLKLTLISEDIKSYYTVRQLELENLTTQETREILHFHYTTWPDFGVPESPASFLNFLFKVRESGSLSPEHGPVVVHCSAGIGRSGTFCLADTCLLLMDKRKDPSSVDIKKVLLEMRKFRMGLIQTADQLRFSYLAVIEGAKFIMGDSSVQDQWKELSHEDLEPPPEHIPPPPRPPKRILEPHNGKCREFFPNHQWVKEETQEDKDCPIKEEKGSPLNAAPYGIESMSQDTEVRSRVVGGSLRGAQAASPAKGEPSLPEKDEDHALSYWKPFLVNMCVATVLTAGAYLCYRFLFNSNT

[2] = 96 h, dose 100 mg/Kg, plasma glucose Day 4, 7 or 14, read-out: % Change Glucose from Vehicle
[3] = dose 100 mg/Kg, read-out: % Change Insulin from Vehicle
[4] = 96 h, dose 25 mg/Kg, plasma glucose Day 4, 7 or 14, read-out: % Change Glucose from Vehicle
[5] = dose 25 mg/Kg, read-out: % Change Insulin from Vehicle
[6] = 96 h, plasma glucose Day 4, 7 or 14, read-out: % Change Glucose from Vehicle
[7] = read-out: % Change Insulin from Vehicle

| SMILES | % Change from Control [1] | change in vivo at 100 mg/kg (diabetic (ob/ob) mice; [2]) | change in vivo at 100 mg/kg (diabetic (ob/ob) mice; [3]) | IC50 (Human recombinant PTP1B) | further results |
| --- | --- | --- | --- | --- | --- |
| O=C(O)C(Cc1c[nH]c2ccccc12)Oc1c(Br)cc(-c2c3ccccc3c(Br)c3sc4ccccc4c23)cc1Br (racemic) [Example 122, (R,S)-2-[2.6-Dibromo-4-(6-bromo-benzo[b]naphtho[2,3-d]thiophen-11-yl)-phenoxy]-3-(1 H-indol-3-yl)-propionic acid] | -85.46% | -28.1% | -37.4% | 36 nM |  |
| CC1(COc2ccc(CC3SC(=O)NC3=O)cc2)CCCCC1 (centres unmarked) [Ciglitazone, 5-(4-(1-methylcyclohexylmethoxy)benzyl)-2,4-dione, reference compound] |  | -43% | -39% |  | lowering in plasma glucose (in words) (diabetic (ob/ob) mice; positive control, 100 mg/kg/day): significant lowering in plasma glucose |
| Oc1cc(-c2c3ccccc3c(Br)c3sc4ccccc4c23)cc(Br)c1O [Example 70, 3-Bromo-5-(6-bromo-benzo[b]naphtho[2,3-d]thiophen-11-yl)-benzene-1,2-diol] | -29.03% |  |  | 74 nM | change in vivo at 25 mg/kg (diabetic (ob/ob) mice; [4]): -28.6%; change in vivo at 25 mg/kg (diabetic (ob/ob) mice; [5]): 45.7% |
| O=C(O)COc1c(Br)cc(-c2c3ccccc3c(Br)c3sc4ccccc4c23)cc1Br [Example 79, [2,6-Dibromo-4-(6-bromo-benzo[b]naphtho[2,3-d]thiophen-11-yl)-phenoxy]-acetic acid] | -82.58% | -22.6% |  | 386 nM | % Change Glucose from Vehicle (diabetic (ob/ob) mice; dose 100 mg/Kg, plasma glucose Day 4, 7 or 14, 100 mg/kg): -22.60% |
| O=C(O)COc1ccc(-c2c3ccccc3c(Br)c3sc4ccccc4c23)cc1 [Example 87] | -63.18% | -15.8% | -88% | 1680 nM |  |
| CC(C)c1cc(-c2c3ccccc3c(Br)c3sc4ccccc4c23)cc(C(C)C)c1OCC(=O)O [Example 89, [4-(6-Bromo-benzo[b]naphtho[2,3-d]thiophen-11-yl)-2,6-diisopropyl-phenoxy)-acetic acid] | -61.04% |  |  | 126 nM | change in vivo at 10 mg/kg (diabetic (ob/ob) mice; [6]): -24.9% |
| O=C(O)[C@@H](Cc1ccccc1)Oc1c(Br)cc(-c2c3ccccc3c(Br)c3sc4ccccc4c23)cc1Br [Example 108, (R)-2-[2,6-Dibromo-4-(6-bromo-benzo[b]naphtho[2,3-d]thiophen-11-yl)-phenoxy]-3-phenyl-propionic acid] |  | -45.8% | -72.6% | 61 nM | % Change from Control ([1]; 50 µM): -72.94%; change in vivo at 10 mg/kg (diabetic (ob/ob) mice; [6]): -26.1%; change in vivo at 50 mg/kg (diabetic (ob/ob) mice; [6]): -34.8%; change in vivo at 75 mg/kg (diabetic (ob/ob) mice; [6]): -49.7%; change in vivo at 10 mg/kg (diabetic (ob/ob) mice; [7]): -30.3%; change in vivo at 50 mg/kg (diabetic (ob/ob) mice; [7]): -84.8%; change in vivo at 75 mg/kg (diabetic (ob/ob) mice; [7]): -89.6%; % Change Insulin from Vehicle (diabetic (ob/ob) mice; dose 25 mg/Kg): -71.03%; % Change Glucose from Vehicle (diabetic (ob/ob) mice; dose 25 mg/Kg, plasma glucose Day 4, 7 or 14, 25 mg/kg): -25.66% |
| O=C(O)[C@@H](Cc1ccccc1)Oc1c(Br)cc(-c2c3ccccc3c(Br)c3sc4ccccc4c23)cc1Br [Example 109, (R)-2-[2,6-Dibromo-4-(6-bromo-benzo[b]naphtho[2,3-d]thiophen-11-yl)-phenoxy]-3-phenyl-propionic acid, sodium salt] |  |  |  | 71 nM | % Change from Control ([1]; sodium salt, 50 µM): -66.67%; % Change Glucose from Vehicle (diabetic (ob/ob) mice; dose 25 mg/Kg, plasma glucose Day 4, 7 or 14, sodium salt, 25 mg/kg): -26.31%; % Change Insulin from Vehicle (diabetic (ob/ob) mice; dose 25 mg/Kg, sodium salt): -71.64% |
| O=C(O)[C@H](Cc1ccccc1)Oc1c(Br)cc(-c2c3ccccc3c(Br)c3sc4ccccc4c23)cc1Br [Example 111, (S)-2-[2,6-Dibromo-4-(6-bromo-benzo[b]naphtho[2,3-d]thiophen-11-yl)-phenoxy]-3-phenyl-propionic acid] | -76.45% | -39.4% | -17.9% | 62 nM |  |
| O=C(O)[C@@H](CCc1ccccc1)Oc1c(Br)cc(-c2c3ccccc3c(Br)c3sc4ccccc4c23)cc1Br [Example 113] | -101.01% |  |  | 45 nM | change in vivo at 25 mg/kg (diabetic (ob/ob) mice; [4]): -0.5%; change in vivo at 25 mg/kg (diabetic (ob/ob) mice; [5]): -55.8% |
| N#Cc1c2ccccc2c(-c2cc(Br)c(O[C@@H](Cc3ccccc3)C(=O)O)c(Br)c2)c2c1sc1ccccc12 [Example 115, (S)-2-[2,6-Dibromo-4-(6-cyano-benzo[b]naphtho[2,3-d]thiophen-11-yl)-phenoxy]-3-phenyl-propionic acid] | -55.43% | -33.9% | 52% | 279 nM |  |
| O=C(O)[C@@H](Cc1ccccc1)Oc1ccc(-c2c3ccccc3cc3sc4ccccc4c23)cc1 [Example 117, (R)-2-[4-(Benzo[b]naphtho[2,3-d]thiophen-11-yl)-phenoxy]-3-phenyl-propionicacid] | -79.06% | -14.5% | -83.8% | 1510 nM |  |
| C[C@@H](Oc1c(Br)cc(-c2c3ccccc3c(Br)c3sc4ccccc4c23)cc1Br)C(=O)O [Example 121, (R)-2-[2,6-Dibromo-4-(6-bromo-benzo[b]naphtho[2,3-d]thiophen-11-yl)-phenoxy]-propionic acid] | -74.70% | -54.6% | -87.8% | 184 nM | change in vivo at 10 mg/kg (diabetic (ob/ob) mice; [6]): 1.37%; change in vivo at 10 mg/kg (diabetic (ob/ob) mice; [7]): -41.8% |
| CCCCC(Oc1c(Br)cc(-c2c3ccccc3c(Br)c3sc4ccccc4c23)cc1Br)C(=O)O (centres unmarked) [Example 123, 2-[2,6-Dibromo-4-(6-bromo-benzo[b]naphtho[2,3-d]thiophen-11-yl)-phenoxy]-hexanoic acid] | -87.44% |  |  | 82 nM | change in vivo at 75 mg/kg (diabetic (ob/ob) mice; [6]): -24%; change in vivo at 75 mg/kg (diabetic (ob/ob) mice; [7]): -40.9% |
| O=C(O)[C@@H](Cc1ccccc1)Oc1c(Br)cc(-c2c3ccccc3c(C(F)(F)F)c3sc4ccccc4c23)cc1Br [Example 125, (R)-2-[2,6-Dibromo-4-(6-trifluoromethyl-benzo[b]naphtho[2,3-d]thiophen-11-yl)-phenoxy]-3-phenyl-propionic acid] | -73.96% |  |  |  | change in vivo at 95 mg/kg (diabetic (ob/ob) mice; [6]): -27.6%; change in vivo at 95 mg/kg (diabetic (ob/ob) mice; [7]): -89.7% |
| COc1c2ccccc2c(-c2cc(Br)c(O[C@H](Cc3ccccc3)C(=O)O)c(Br)c2)c2c1sc1ccccc12 [Example 126, (R)-2-[2,6-Dibromo-4-(6-methoxy-benzo[b]naphtho[2,3-d]thiophen-11-yl)-phenoxy]-3-phenyl-propionic acid] | -78.77% |  |  | 298 nM | change in vivo at 25 mg/kg (diabetic (ob/ob) mice; [4]): -28.6%; change in vivo at 25 mg/kg (diabetic (ob/ob) mice; [5]): -62.4% |
| O=C(O)[C@@H](Cc1ccccc1)Oc1c(I)cc(-c2c3ccccc3cc3sc4ccccc4c23)cc1I [Example 131] | -66.21% |  |  |  | change in vivo at 25 mg/kg (diabetic (ob/ob) mice; [4]): -3.63%; change in vivo at 25 mg/kg (diabetic (ob/ob) mice; [5]): -67.5% |
| O=C(O)COc1c(-c2ccccc2)cc(-c2c3ccccc3cc3sc4ccccc4c23)cc1-c1ccccc1 [Example 191] |  |  |  |  | change in vivo at 10 mg/kg (diabetic (ob/ob) mice; [6]): -22.8%; change in vivo at 25 mg/kg (diabetic (ob/ob) mice; [4]): -36.5%; change in vivo at 25 mg/kg (diabetic (ob/ob) mice; [5]): -64.3% |
